From ChEMBL document CHEMBL1135839, “Design and synthesis of novel benzofurans as a new class of antifungal agents targeting fungal N-myristoyltransferase. Part 2” (Bioorg Med Chem Lett, 2002)

Experiments:
[1] = Plasma concentration expressed as area under curve after intravenous administration was determined in rat; type: ADME, organism-based
[2] = Half life of compound determined after intravenous administration to rat; type: ADME, organism-based; settings: in vivo
Candida albicans [3] = assay: Antifungal activity expressed as inhibitory concentration against Candida albicans CY1002 in calf serum; type: functional, organism-based
[4] = molecular target: T1, Peptide N-myristoyltransferase (Homo sapiens, UniProt P30419+O60551); assay: Inhibitory activity against human N-Myristoyltransferase (HsNmt) assessed as inhibitory concentration using substrate peptide and myristotyl-CoA at 0.5 uM; type: protein assay
T1 sequence (P30419 whole entry): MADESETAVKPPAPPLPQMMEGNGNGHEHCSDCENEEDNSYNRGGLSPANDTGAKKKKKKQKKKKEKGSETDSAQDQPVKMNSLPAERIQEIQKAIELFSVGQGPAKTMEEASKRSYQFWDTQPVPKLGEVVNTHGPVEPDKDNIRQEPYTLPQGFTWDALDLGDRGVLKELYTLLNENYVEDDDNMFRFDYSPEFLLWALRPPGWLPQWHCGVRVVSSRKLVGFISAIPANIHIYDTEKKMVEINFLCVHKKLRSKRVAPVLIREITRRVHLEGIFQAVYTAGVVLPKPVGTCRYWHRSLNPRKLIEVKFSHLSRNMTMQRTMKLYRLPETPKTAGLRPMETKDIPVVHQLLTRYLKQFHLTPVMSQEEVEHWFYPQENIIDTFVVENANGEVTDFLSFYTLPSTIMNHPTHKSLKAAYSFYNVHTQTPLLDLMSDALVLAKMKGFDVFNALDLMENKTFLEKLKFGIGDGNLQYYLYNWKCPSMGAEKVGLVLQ
T1 sequence (O60551 whole entry): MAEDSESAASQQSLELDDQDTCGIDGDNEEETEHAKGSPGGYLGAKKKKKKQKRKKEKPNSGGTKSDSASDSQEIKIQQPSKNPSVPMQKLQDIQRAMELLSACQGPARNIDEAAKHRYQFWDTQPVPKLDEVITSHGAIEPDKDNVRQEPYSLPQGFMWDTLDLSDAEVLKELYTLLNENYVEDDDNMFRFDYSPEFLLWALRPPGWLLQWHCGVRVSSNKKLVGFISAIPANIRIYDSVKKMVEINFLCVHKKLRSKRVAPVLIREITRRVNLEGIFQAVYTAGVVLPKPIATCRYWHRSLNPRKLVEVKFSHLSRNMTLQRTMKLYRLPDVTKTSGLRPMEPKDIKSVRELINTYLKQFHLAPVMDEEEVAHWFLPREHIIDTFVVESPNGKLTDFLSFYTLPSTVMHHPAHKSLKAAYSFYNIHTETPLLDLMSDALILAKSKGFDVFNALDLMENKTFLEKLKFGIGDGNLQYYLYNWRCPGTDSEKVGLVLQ

Candida albicans [5] = assay: Antifungal activity expressed as inhibitory concentration against Candida albicans CY1002 in YNBPB medium; type: functional, organism-based
[6] = molecular target: Candida albicans N-myristoyltransferase (Candida albicans); assay: Inhibitory activity against Candida albicans N-Myristoyltransferase (CaNmt) assessed as inhibitory concentration using substrate peptide and myristotyl-CoA at 0.5 uM
Candida albicans [7] = assay: Antifungal activity expressed as inhibitory concentration against Candida albicans in calf serum; type: functional, organism-based
[8] = molecular target: Candida albicans N-myristoyltransferase (Candida albicans); assay: Inhibitory activity against Candida albicans (Nmt) assessed as inhibitory concentration
[9] = molecular target: Candida albicans N-myristoyltransferase (Candida albicans); assay: Inhibitory activity against Candida albicans N-Myristoyltransferase (Nmt)
Rattus norvegicus = assay: Effective dose required against Candida albicans for 50% survival on intravenous administration in rats; type: functional
[10] = molecular target: Candida albicans N-myristoyltransferase (Candida albicans); assay: Inhibitory activity against Candida albicans (Nmt) assessed as inhibitory concentration (nM)

For `Cc1c(COc2cccc(F)c2)oc2cccc(OCCCNCc3cccnc3)c12`, the AUC [1] was 370 ng·h/mL, the half-life [2] was 90 min and the IC50 (Candida albicans [3]) was 3300 nM. The IC50 [4] was greater than 110 µM, the IC50 (Candida albicans [5]) was 110 nM and the IC50 [6] was 0.11 µM.

Compound `OC(Cn1cncn1)(Cn1cncn1)c1ccc(F)cc1F` [FLUCONAZOLE] has an AUC [1] of 19.6 ng·h/mL, a half-life [2] of 240 min and an IC50 (Candida albicans [3]) of 500 nM. The IC50 (Candida albicans [7]) was 500 nM.

With `Cc1c(COc2ccccc2F)oc2cccc(OCCCNCc3cccnc3)c12` the AUC [1] was 560 ng·h/mL, the half-life [2] was 96 min and the IC50 (Candida albicans [3]) was 600 nM. It also gave an IC50 [4] greater than 470 µM, an IC50 (Candida albicans [5]) of 40 nM and an IC50 [8] of 8.3 nM. The IC50 [6] was 0.0083 µM.

In the case of `Cc1c(COc2ccc(C#N)cc2)oc2cccc(OCCCNCc3cccnc3)c12`, the AUC [1] is reported as 340 ng·h/mL, the half-life [2] is reported as 72 min and the IC50 (Candida albicans [3]) is reported as 1400 nM. For the same compound, the IC50 [4] was greater than 460 µM, the IC50 (Candida albicans [5]) was 160 nM and the IC50 [9] was 9.4 nM. For the same compound, the IC50 [6] was 0.0094 µM.

For `Cc1c(COc2ccc(F)c(F)c2F)oc2cccc(OCCCNCc3cccnc3)c12`, the AUC [1] was 330 ng·h/mL, the half-life [2] was 120 min and the IC50 (Candida albicans [3]) was 330 nM. The ED50 (Rattus norvegicus) was 7.1 mg/kg and the IC50 (Candida albicans [5]) was 35 nM.

With `Cc1c(COc2ccc(F)cc2)oc2cccc(OCCCNCc3cccnc3)c12` the AUC [1] was 340 ng·h/mL, the half-life [2] was 114 min and the IC50 (Candida albicans [3]) was 700 nM. For the same compound, the IC50 [4] was 67 µM, the IC50 (Candida albicans [5]) was 21 nM and the IC50 [10] was 5.2 nM. The IC50 [6] was 0.0052 µM.

In the case of `Cc1c(COc2ccc(Br)cc2F)oc2cccc(OCCCNCc3cccnc3)c12`, the AUC [1] is reported as 360 ng·h/mL, the half-life [2] is reported as 216 min and the IC50 (Candida albicans [3]) is reported as 1300 nM. The IC50 [4] was greater than 400 µM, the ED50 (Rattus norvegicus) was greater than 30 mg/kg and the IC50 (Candida albicans [5]) was 74 nM. It also gave an IC50 [6] of 0.028 µM.

For `Cc1c(CSc2ccccc2)oc2cccc(OCCCNCc3cccnc3)c12`, the AUC [1] was 390 ng·h/mL, the half-life [2] was 84 min and the IC50 (Candida albicans [3]) was 180000 nM. For the same compound, the IC50 (Candida albicans [5]) was 11000 nM.

With `Cc1c(COc2ccccc2)oc2cccc(OCCCNCc3cccnc3)c12` the AUC [1] was 670 ng·h/mL, the half-life [2] was 114 min and the IC50 [4] was 77 µM. For the same compound, the IC50 (Candida albicans [5]) was 370 nM and the IC50 [6] was 0.072 µM.

`Cc1c(COc2ccc(F)cc2F)oc2cccc(OCCCNCc3cccnc3)c12` gave an AUC [1] of 420 ng·h/mL, a half-life [2] of 96 min and an IC50 (Candida albicans [3]) of 340 nM. It also gave an IC50 [4] greater than 450 µM, an ED50 (Rattus norvegicus) of 7.1 mg/kg and an IC50 (Candida albicans [5]) of 30 nM. It also gave an IC50 [10] of 7.5 nM and an IC50 [6] of 0.0075 µM.

For `Cc1c(COc2ccc(Cl)cc2)oc2cccc(OCCCNCc3cccnc3)c12`, the AUC [1] was 330 ng·h/mL, the half-life [2] was 144 min and the IC50 (Candida albicans [3]) was 6600 nM. For the same compound, the IC50 [4] was greater than 110 µM, the IC50 (Candida albicans [5]) was 920 nM and the IC50 [6] was 0.073 µM.

Compound `Cc1c(COc2cccc(F)c2F)oc2cccc(OCCCNCc3cccnc3)c12` has an AUC [1] of 500 ng·h/mL, a half-life [2] of 114 min and an IC50 (Candida albicans [3]) of 570 nM. The IC50 (Candida albicans [5]) was 80 nM.

Work on `Cc1c(CCc2ccccc2)oc2cccc(OCCCNCc3cccnc3)c12` yielded an AUC [1] of 290 ng·h/mL, a half-life [2] of 66 min and an IC50 (Candida albicans [3]) greater than 240000 nM. It also gave an IC50 [4] of 12 µM, an IC50 (Candida albicans [5]) of 13000 nM and an IC50 [6] of 1.2 µM.

Work on `CCOC(=O)c1oc2cccc(OCCCNCc3cccnc3)c2c1C` yielded an AUC [1] of 330 ng·h/mL, a half-life [2] of 24 min and an IC50 [4] greater than 450 µM.

In the case of `Cc1c(COc2ccccc2C#N)oc2cccc(OCCCNCc3cccnc3)c12`, the AUC [1] is reported as 280 ng·h/mL, the half-life [2] is reported as 30 min and the IC50 (Candida albicans [3]) is reported as 3300 nM. For the same compound, the IC50 [4] was 19 µM, the IC50 (Candida albicans [5]) was 1200 nM and the IC50 [6] was 0.017 µM.

`Cc1c(C(=O)Nc2ccccc2)oc2cccc(OCCCNCc3cccnc3)c12` gave an AUC [1] of 240 ng·h/mL, a half-life [2] of 54 min and an IC50 [4] greater than 480 µM. For the same compound, the IC50 (Candida albicans [5]) was 12000 nM and the IC50 [6] was 2.2 µM.
